In publication PMC5663708, “Novel Benzylidene Thiazolidinedione Derivatives as Partial PPARγ Agonists and their Antidiabetic Effects on Type 2 Diabetes” (Scientific Reports, 2017):

Experiments:
[1] = system: NIH/3T3 mouse embryonic fibroblast cells; test: XTT cytotoxicity assay on NIH/3T3 cells; settings: Mus musculus, NIH3T3, 24 h
Experimental: XTT is reduced to soluble formazan by this enzyme and formazan is quantified and directly proportional to the number of viable cells. […] NIH/3T3 cells were seeded at 1 × 10^4 cells into each well of 96-well plates. […] The XTT assay (Xenometrix, Allschwil, Switzerland) was performed according to the manufacturer’s instructions, after 24 h incubation with the compounds. The absorbance was determined after 2 h incubation at 480 nm with a reference wavelength of 680 nm using a microplate reader (BioTek, USA). […] The stock solutions of the compounds were prepared in DMSO and further dilutions were made with fresh culture medium. The final DMSO concentration was under 0.1%. Rosiglitazone and Pioglitazone were used as positive controls. All data were obtained from 3 independent experiments in quadruplicates.

[2] = system: STZ-NA-induced diabetic rats; test: Antidiabetic activity in STZ-NA-induced type 2 diabetic rats
Experimental: The test dose was fixed based on the predicted LD50 value. […] Diabetic rats were orally treated with the test compounds at a dose of 36 mg/kg body weight for a period of 15 days. Fasting blood glucose of control, diabetic-untreated and diabetic-treated rats were tested on Days 1, 3, 7 and 15 of the treatment period (Fig. 6A).
Male Wistar strain rats weighing about 160–200 g were used for animal studies. […] Rats were provided with rodent diet and water ad libitum. […] The animals were allowed to drink 5% glucose solution overnight to prevent STZ-NA-induced hypoglycemia[82],[83]. The rats were considered as diabetic if their blood glucose levels were above 250 mg/dL on the 3rd day after STZ-NA injection. The rats were divided into four groups of six animals in each group. Control animals received normal saline (Group I). Diabetic rats received STZ-NA injection (Group II). […] The blood glucose level of each group was checked at 1, 3, 7 and 15 Day by withdrawing blood from tail vein of the animal using glucose meter (ACCu-Chek active, Roche, Diagnostics USA).
After pharmacological screening for antidiabetic activity, the animals were subjected to overnight fasting and blood was collected from retro-orbital region under light anaesthesia for performing various biochemical experiments. All the biochemical experiments were performed using commercially available kits. Total Hb was estimated by cyanomethaemoglobin method, while HbA1c was estimated from whole blood using commercially available kits following the manufacturer guidelines (ERBA Diagnostics Inc, Accurex Biomedical Pvt. Ltd., Coral clinical systems, India). TG concentration was determined by GPO-POD enzymatic-colorimetric method. TC level was measured by the end point, CHOD-POD colorimetric methods. HDL-C was assayed by the method reported earlier. VLDL-C and LDL-C in plasma were calculated by the Friedewald formula: VLDL-C = TG/5; LDL-C = TC-(HDL-C + VLDL-C)[88]. Levels of serum urea, uric acid, and creatinine were measured using commercially available kits[89].
Rats were sacrificed under light anesthesia using diethylether at the end of the pharmacological and biochemical studies. […] Then, the tissue was sliced out into sections of 5 µm thickness by a rotator microtome and stained with hematoxylin-eosin. Obtained sections were examined by a Leica DME microscope, and representative photomicrographs were taken by a 7.1 megapixel Canon Power Shot S70 digital camera.

[3] = target: T1, human PPARγ (hPPARγ) (Homo sapiens, UniProt P37231); design: method as in earlier work; settings: PPARγ activity of metaglidasen; cited from earlier work
T1 construct: expressed in transfected cells; host or cells: HepG2 (human hepatoblastoma), transient calcium phosphate transfection
T1 sequence (P37231 238-503 limits assumed): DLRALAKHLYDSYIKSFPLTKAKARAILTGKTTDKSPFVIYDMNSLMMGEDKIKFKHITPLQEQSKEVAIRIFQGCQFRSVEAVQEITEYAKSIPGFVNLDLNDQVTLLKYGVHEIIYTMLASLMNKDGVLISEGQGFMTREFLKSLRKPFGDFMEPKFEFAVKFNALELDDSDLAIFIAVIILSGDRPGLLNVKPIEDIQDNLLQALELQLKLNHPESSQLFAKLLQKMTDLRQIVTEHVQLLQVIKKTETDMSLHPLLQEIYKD

For CCc1ccc(CCOc2ccc(CC3SC(=O)NC3=O)cc2)nc1 (stereo not shown) [Pioglitazone, reference compound], the IC50 [1] was > 1000 µM, the blood glucose levels ([2]; 36 mg/kg oral, 15 days, vs diabetic control rats) was “significantly reduced” and the Hb levels ([2]; 36 mg/kg oral, 15 days, vs disease control (STZ + NA)) was “significant increase”. For the same compound, the “histological changes of pancreas (islets, β-cells)” value ([2]; 36 mg/kg, light microscopy, hematoxylin-eosin) was “restored to near normal”.

For CC(=O)NCCOC(=O)[C@H](Oc1cccc(C(F)(F)F)c1)c1ccc(Cl)cc1 [metaglidasen], the EC50 [3] is listed as ~10 µM and the Emax [3] is listed as “around 10%”.

CN(CCOc1ccc(CC2SC(=O)NC2=O)cc1)c1ccccn1 (stereo not shown) [Rosiglitazone, reference compound] gave an IC50 [1] of 662 ± 18 µM.
